Values quoted from earlier work in patent publication US12533344B2, “Formulations” (Glaukos Corporation, priority 2021, dated 2026).
Like-named read-outs stand apart in the source and are kept apart here.

Settings: for Effective Buffering Range: pH range

## O=C(O)CCCCCCCC(=O)O [Azeliac acid]
Buffers and stabilizers of Table 1
  pKa: 4.60
  Effective Buffering Range: 3.3-6.0

## CC(O)C(=O)O (stereo not shown) [Lactic acid]
  Effective Buffering Range: 2.8-5.3

## O=C1O[C@H]([C@@H](O)CO)C(O)=C1O [Ascorbic acid]
  Effective Buffering Range: 3.3-6.2

## CC[C@@H]1C(=O)OC[C@@H]1Cc1cncn1C [pilocarpine, reference compound]
  pKa of pilocarpine: ~6.5

## Citrate buffer
Listed as Citrate buffer-pKa1
  Effective Buffering Range: 2.2-5.0
Listed as Citrate buffer-pKa2
  Effective Buffering Range: 3.0-6.2
